# Values of other authors as cited in patent US20140051737A1, “METHODS FOR THE TREATMENT AND DIAGNOSTIC OF PULMONARY ARTERIAL HYPERTENSION” (UNIVERSITE LAVAL, priority 2011, published 2014).
# Tested on: patients carrying the BRCA1 or BRCA2 mutation
# Conditions: cited from earlier work
smiles,measurement,value
O=C(c1cc(Cc2n[nH]c(=O)c3ccccc23)ccc1F)N1CCN(C(=O)C2CC2)CC1 [olaparib],objective antitumor activity,only showed objective antitumor activity in patients carrying the BRCA1 or BRCA2 mutation
